Data on three substances can be found in US8865672B2, “Prevention of tissue ischemia and related methods” (The United States of America, as represented by the …, priority 2006, dated 2014).

The subject of data set [1] is full thickness skin grafts in mice. The data set can be described thus: Full thickness skin graft (FTSG) model. Format: in vivo, mouse. Particulars: for FTSG survival: wild type FTSG and wound beds infiltrated at grafting. The protocol: Wild type, TSP1 null, CD47 null and CD36 null mice were matched for sex and age. Anesthesia was induced by and maintained with inhalation isoflurane. Body temperature was maintained at 37° C. with a heating pad during the procedure. The dorsal surface was clipped of hair and depilated with Nair®. The skin was then cleansed with surgical soap and alcohol and the animals draped. Using sterile technique, a 1×1 cm FTSG incorporating the panniculus carnosus, subcutaneous tissues and skin were raised. Graft dimensions were marked on the animal skin surface with the aid of a template to insure consistency in dimension. Grafts were in the midline of the animal and secured with four interrupted 5-0 nylon sutures. Sutures were so placed as to include the fascia of the dorsal musculature to provide increased immobilization of grafts to the underlying wound bed Animals were awakened and returned to individual cages and allowed ad libitum access to food and water. Trauma to FTSG was not encountered during the post-operative interval since grafts were located in the dorsal midline over the mid thoracic area and each animal was housed individually following surgery. On postoperative day three or seven, the animals were again anesthetized with inhalation isoflurane and skin graft survival evaluated.
The groups of animals utilized and the treatments received as indicated either at the time of skin grafting and/or during the post-operative interval are summarized in FIG. 21. Animals treated with ISDN (1 mg/ml) or L-NAME (0.5 mg/ml) had ad libitum access to drinking water containing the given concentrations of agents during the post-operative interval. Animals treated with a CD47 monoclonal antibody (Ab clone 301) or an isotype matched control antibody (Ig2α) underwent injection of 40 μg delivered as 10 μl of a 4 mg/ml stock in 100 μl of PBS with equal volumes injected between the wound bed and graft prior to suturing the graft in place. Animals treated with a CD47 morpholino oligonucleotide underwent injection of the FTSG and wound bed with 10 μmol/L in 250 μl of PBS with 125 μl volumes injected in the graft and wound bed, respectively prior to suturing the graft in place.
The necrotic areas of the FTSG were determined by color, refill, eschar, and the pin-prick test. The outlines of viable and nonviable areas were traced using transparent film, and the area of necrosis cut from the template and the area of skin graft necrosis versus total skin graft area determined by comparison of the original template weight to the weight of the cut template utilizing the method described by Ueda (Ueda et al., J Surg Res 80(2):200-204, 1998). Skin graft survival area was presented as the ration of graft survival on post-operative day three or seven divided by the original graft area multiplied by 100%. Additionally, digital images were then acquired using an Olympus C5500 digital camera at a fixed distance (20 cm perpendicular to the animal) under standard room lighting with autoflash and macro settings engaged and uploaded for image analysis of tissue survival with a standard software program (Image-Pro Plus, Media Cybernetics, Inc., Silver Spring, Md.). […]
Skin graft wound beds were assessed at indicated time points (72 hours or 7 days post-operatively) for visible alterations in vascularity under 5× magnification. […] Visible vessels without ramifications and branches were counted once. […]

Data set [2] deals with ischemic hindlimbs in mice. The data set can be described thus: Hindlimb ischemia model. Format: in vivo, mouse. Particulars: ischemic wild type hindlimbs; for hindlimb tissue necrosis: morpholino 10 μM to thigh musculature. The method, then: Wild type C57BL6, TSP1 null, CD47 null and CD36 null mice, age and sex matched, underwent ligation of the left external iliac and common femoral arteries. The right limb served as control. All animals underwent examination every 24 h to assess clinical ischemia based on a previously published index (Paek et al., J Vasc Surg. 36:172-179, 2002). At the end of 3 or 7 days animals were euthanized, and the tibialis anterior muscles from the right and left limbs were harvested, weighed and processed for mitochondrial viability.
Mitochondrial viability of hindlimb muscle biopsies was assessed by the reduction of a tetrazolium salt to water insoluble formazan through mitochondrial oxidation as described (Bonheur et al., J Surg Res. 116:55-63, 2004). Tibialis anterior muscle biopsies were weighed and incubated in 3 ml of PBS supplemented 1:10 with 3-(4,5-dimethylthiazol-2-yl)-2,5 diphenyl tetrazolium stock (MTT, Promega, Madison, Wis.) for 3 h in the dark at 37° C., washed with distilled water and blotted dry. The formazan salt was extracted in 3 ml of 2-propranol for 6 hours in the dark at 37° C. Absorbance for 200 μl aliquots was determined at 425 nm on a microplate reader. Muscle samples were dried at 90° C. and weighed again. Results were expressed as absorbance normalized to dry tissue weight.

The test system of data set [3] is random dorsal cutaneous flaps in white hairless Yucatan miniature pigs. The data set can be described thus: Porcine random cutaneous flap model. Format: in vivo, pig. Particulars: for flap necrosis: 2×10 cm flaps, injection at surgery. The protocol: Animals underwent shaving of the dorsal surface hair and cleansing of the skin with soap and alcohol. Random dorsal cutaneous flaps 2×10×0.5 cm were elevated and immediately sutured in place with interrupted 4-0 nylon suture (Ethicon, Johnson & Johnson, N.J.). Treated flaps were injected with the indicated amounts of drug in sterile normal saline. On the 3 and 7 post-operative days tissue survival was determined and flaps excised for histology. In some instances animals received intravenous fluorescein prior to euthanasia and flap perfusion assessed under ultra violet illumination.
Clinical assessment of flap perfusion was performed with notation of color, capillary refill and bleeding to needle stick being recorded. Flap dimensions were then traced onto a clear plastic sheet and with demarcation of viable and non-viable areas made.
The internal jugular vein and common carotid arteries were cannulated and the animals perfused with a volume of 5 L heparinized (50 U/mL) normal saline heated to 50° C. A mixture of India ink and gelatin (5%) heated to 50° C. (1 L) was administered by gently pressing and then releasing the plunger of the syringe to simulate the arterial pulse. The flaps were excised and placed in 100% glycerin and stored at 4° C. for 10 days. During this time flap tissue became thin, desiccated and transparent and allowed visualization of the vascular architecture under direct transillumination.

For data set [4], the system named is white hairless Yucatan miniature pig VSMC. The data set can be described thus: Intracellular cGMP in porcine VSMC. Type of data set: cell-based. The protocol: White hairless Yucatan miniature pig VSMC were plated onto culture plates (Nunc, Roskilde, Denmark) at a the indicated cell density in smooth muscle cell growth medium+2% FCS and cultured until approximately 90% confluent. Cultured cells were treated according to the recommendation of the manufacturer with morpholinos (10 μM) and delivery agent (Endoporter® 6 μl/ml) and used within 48 hours of treatment.
White hairless Yucatan miniature pig VSMC (10^4 cells/well) grown overnight in 12-well culture in SM-GM containing 2% FCS and then weaned off serum over 48 h before treatment with NO donors and other agents in serum/additive free medium+0.1% BSA. Intracellular cGMP levels were determined using an enzyme immunoassay (Amersham, GE Health Care, UK).

Regarding “CGTgACAGcCAcGACCgACTGCgCA (antisense CGTGACAGCCACGACCGACTGCGCA; all phosphorodiamidate morpholino (PMO)) [control morpholino, reference compound]”, in data set [1], the FTSG survival result is “significant graft necrosis and loss”. In addition, in data set [2], the hindlimb tissue necrosis result is given as “did not protect”. Besides, the flap necrosis in data set [3] worked out at 34±6%. In addition, the “India ink staining of flap vessels” value in data set [3] (post-operative day 3) was “lack of India ink staining of vessels”.

On to “CGTCACAGGCAGGACCCACTGCCCA (all phosphorodiamidate morpholino (PMO)) [CD47 morpholino]”, for which the “H & E histology of treated wild type FTSG” value in data set [1] (mouse, in vivo) was “essentially normal tissue architecture without evidence of necrosis”. Besides, the FTSG survival in data set [1] is 79±5%. The “wound bed vascular index” value in data set [1] (wild type wound beds) was “substantial increases in visible vasculature”. Further, in data set [2], the muscle mitochondrial viability result is reported as “increased muscle mitochondrial viability” and the hindlimb tissue necrosis result was “essentially no tissue necrosis”. In addition, the “ability of TSP1 to suppress NO-stimulated cGMP after pretreatment” value in data set [4] (porcine VSMC, TSP1 2.2 nM) is recorded as “resistant to suppression by TSP1”. The “basal cGMP levels” value in data set [4] (resting porcine VSMC) is “elevated”. Also, the flap necrosis in data set [3] was 12±3%. The flap tissue survival result in data set [3] (compared to untreated flaps) is “significantly more tissue survival”.

On to “TSP1: thrombospondin-1 prepared from human platelets”, for which the “NO-stimulated increase in cGMP” value in data set [4] (control and mismatch treated porcine VSMC, TSP1 2.2 nM) was “blocked the increase in cGMP”.
